PMC4624780 (PLoS ONE, 2015)
Square brackets hold non-standard residues; d marks the D form. Peptide text beside a SMILES is read from it. Ahx = NCCCCCC(=O)O

Key:
[1] = system: 3A N-terminal (1–52) peptide dimer; type: biochemical, foot-and-mouth disease virus (FMDV)

Compound	inhibition of viral production (FMDV C-S8c1)	reduction of viral yield at concentrations lower than 100 μM (FMDV C-S8c1)	inhibition of viral production at 100 μM (FMDV C-S8c1; 24 h, 100 μM)	intensity of the N-ter dimer band, immunoblotting with polyclonal antibody 479 [1]
CC[C@H](C)[C@H](NC(=O)[C@H](CC(C)C)NC(=O)[C@@H]1CCCN1C(=O)[C@H](CCCNC(=N)N)NC(=O)[C@H](CC(C)C)NC(=O)[C@H](CCC(=O)O)NC(=O)CCCCCNC(=O)[C@H](CCCNC(=N)N)NC(=O)[C@H](CCCNC(=N)N)NC(=O)[C@H](CCCNC(=N)N)NC(=O)[C@H](CCCNC(=N)N)NC(=O)[C@H](CCCNC(=N)N)NC(=O)[C@H](CCCNC(=N)N)NC(=O)[C@@H](N)CCCNC(=N)N)C(=O)N[C@@H](CCC(N)=O)C(=O)N[C@@H](CCC(N)=O)C(N)=O [Peptide R7-α2] (H-RRRRRRR[Ahx]ELRPLIQQ-NH2; N-terminus assumed)	dose dependent inhibition	significant reductions	ca. 50%	–
ELRPLIQQ [α2]	–	–	–	impaired in vitro dimer formation
FFEGMVHDS [α1]	–	–	–	impaired in vitro dimer formation
RRRRRRRXFFEGMVHDS [Peptide R7-α1]	dose dependent inhibition	–	–	–
